Where two headings read alike, the source gives them in different places.
Key:
[1] = test system: Candida Albicans (ATCC 10231); experiment: Antimicrobial activity test by tube dilution method, fungi; type: cell-based; conditions: for killing at 50000 µg/mL: Candida albicans, ATCC10231, 0.05 h, read-out: C. albicans % killing
Description: (§1) The antimicrobial activity of the compounds was determined by tube dilution method. Powdery compounds were taken in closed glass vials and were tested against Staphylococcus aureus (ATCC 6538) (bacteria) and Candida Albicans (ATCC 10231) (Fungi). 50 mg of the sample was taken in 1 ml of DMSO and the contact time for the sample was maintained as 3 minutes. The medium for microorganisms was Soyabean Casein Digest Agar for bacteria and Sabouraud's Dextrose Agar for fungi. The incubation time for bacteria was 2 days at 30-35° C. while for fungi was 3-5 days at 20-25° C.

[2] = test system: Staphylococcus aureus (ATCC 6538); experiment: Antimicrobial activity test by tube dilution method, bacteria; type: cell-based; conditions: for killing at 50000 µg/mL: Staphylococcus aureus, ATCC6538, 0.05 h, read-out: S. aureus % killing
Description: as §1

[3] = 50 mg sample in 1 ml DMSO, contact time 3 minutes, Sabouraud's Dextrose Agar, 3-5 days at 20-25° C.
[4] = 50 mg sample in 1 ml DMSO, contact time 3 minutes, Soyabean Casein Digest Agar, 2 days at 30-35° C.

Structure (SMILES)	C. albicans Final Count [1, 3]	killing at 50000 µg/mL [1]	S. aureus Final Count [2, 4]	killing at 50000 µg/mL [2]	killing at 50000 µg/mL [1, 3]	killing at 50000 µg/mL [2, 4]	C. albicans % killing [1, 3]	S. aureus % killing [2, 4]
O=C(N/N=C\c1ccc([N+](=O)[O-])cc1)C12CC3CC(C1)CC(C(=O)N/N=C/c1ccc([N+](=O)[O-])cc1)(C3)C2 [Compound 5a, Bis [N′-(4-nitro)benzylidene]adamantane-1,3-dicarbohydrazide]	0	100%	0	100%	–	–	–	–
O=C(N/N=C\c1cccs1)C12CC3CC(C1)CC(C(=O)N/N=C/c1cccs1)(C3)C2 [Compound 5m]	0	–	1230000	–	100%	93.4%	–	–
COc1cc(/C=N/NC(=O)C23CC4CC(C2)CC(C(=O)N/N=C/c2cc(Br)c(O)c(OC)c2)(C4)C3)cc(Br)c1O [Compound 5l, Bis[N′-(3-bromo,4hydroxy,5-methoxy)benzylidene]adamantane-1,3-dicarbohydrazide]	0	–	0	–	100%	100%	–	–
O=C(N/N=C/c1ccc(Br)cc1)C12CC3CC(C1)CC(C(=O)N/N=C/c1ccc(Br)cc1)(C3)C2 [Compound 5p, Bis[N′-(4-bromo)benzylidene]adamantane-1,3-dicarbohydrazide]	0	–	2310000	–	100%	88.7%	–	–
C/C(=N\NC(=O)C12CC3CC(C1)CC(C(=O)N/N=C(\C)c1ccc(O)cc1)(C3)C2)c1ccc(O)cc1 [Compound 5k, Bis[N′-(1-(4-hydroxyphenyl)ethylidene)]adamantane-1,3-dicarbohydrazide]	0	–	7500000	–	100%	60.3%	–	–
COc1cc(/C=N\NC(=O)C23CC4CC(C2)CC(C(=O)N/N=C/c2cc(OC)c(O)c([N+](=O)[O-])c2)(C4)C3)cc([N+](=O)[O-])c1O [Compound 5h, Bis [N′-(3-nitro, 4-hydroxy, 5-methoxy)benzylidene]adamantane-1,3-dicarbohydrazide]	0	100%	0	100%	–	–	–	–
CC(=NNC(=O)C12CC3CC(C1)CC(C(=O)NN=C(C)c1ccc(Cl)c([N+](=O)[O-])c1)(C3)C2)c1ccc(Cl)c([N+](=O)[O-])c1 [Compound 5r, Bis[N′-(1-(3-nitro,4-chloro)ethylidene)]adamantane-1,3-dicarbohydrazide]	0	–	5100000	–	–	–	100.00%	74.24%
COc1ccc(/C=N\NC(=O)C23CC4CC(C2)CC(C(=O)N/N=C/c2ccc(OC)c(OC)c2)(C4)C3)cc1OC [Compound 5d]	0	–	10300000	–	100%	50.2%	–	–
O=C(N/N=C/c1ccc([N+](=O)[O-])o1)C12CC3CC(C1)CC(C(=O)N/N=C/c1ccc([N+](=O)[O-])o1)(C3)C2 [Compound 5g]	0	100%	10	100%	–	–	–	–
CCOc1ccc(/C=N/NC(=O)C23CC4CC(C2)CC(C(=O)N/N=C/c2ccc(OCC)cc2)(C4)C3)cc1 [Compound 5n, Bis[N′-(4-ethoxy)benzylidene]adamantane-1,3-dicarbohydrazide]	0	–	10	–	100%	100%	–	–
COc1ccc(/C=N/NC(=O)C23CC4CC(C2)CC(C(=O)N/N=C/c2ccc(OC)cc2)(C4)C3)cc1 [Compound 5q, Bis[N′-(4-methoxy)benzylidene]adamantane-1,3-dicarbohydrazide]	0	–	14400000	–	100%	26.1%	–	–
O=C(NN=Cc1ccc(Cl)c([N+](=O)[O-])c1)C12CC3CC(C1)CC(C(=O)NN=Cc1ccc(Cl)c([N+](=O)[O-])c1)(C3)C2 [Compound 5o, Bis[N′-(3-nitro,4-chloro)benzylidene]adamantane-1,3-dicarbohydrazide]	0	–	18400000	–	–	–	100.00%	9.36%
O=C(N/N=C\c1ccc2ccccc2c1)C12CC3CC(C1)CC(C(=O)N/N=C/c1ccc4ccccc4c1)(C3)C2 [Compound 5f]	0	–	16000000	–	100%	20.4%	–	–
C/C(=N/NC(=O)C12CC3CC(C1)CC(C(=O)N/N=C(\C)c1cc(C)ccc1O)(C3)C2)c1cc(C)ccc1O [Compound 5c, Bis [N′-(1-(2-hydroxy, 5-methyl phenyl)ethylidene)]adamantane-1,3-dicarbohydrazide]	10	–	2980000	–	100%	82.9%	–	–
O=C(N/N=C/c1ccc(O)cc1)C12CC3CC(C1)CC(C(=O)N/N=C/c1ccc(O)cc1)(C3)C2 [Compound 5j, Bis[N′-(4-hydroxy)benzylidene]adamantane-1,3-dicarbohydrazide]	0	–	550000	–	100%	97.2%	–	–
Cc1ccc(/C=N/NC(=O)C23CC4CC(C2)CC(C(=O)N/N=C/c2ccc(C)cc2)(C4)C3)cc1 [Compound 5i, Bis[N′-(4-methyl)benzylidene]adamantane-1,3-dicarbohydrazide]	0	–	3120000	–	100%	85%	–	–
COc1cc(/C=N\NC(=O)C23CC4CC(C2)CC(C(=O)N/N=C/c2ccc(O)c(OC)c2)(C4)C3)ccc1O [Compound 5b, Bis [N′-(3-methoxy, 4-hydroxy)benzylidene]adamantane-1,3-dicarbohydrazide]	0	–	1680000	–	100%	90.3%	–	–
CCOc1ccc(/C(C)=N\NC(=O)C23CC4CC(C2)CC(C(=O)N/N=C(\C)c2ccc(OCC)cc2)(C4)C3)cc1 [Compound 5e, Bis [N′-(1-(4-ethoxy)ethylidene)]adamantane-1,3-dicarbohydrazide]	0	–	16400000	–	100%	16.8%	–	–
